15 molecules from ChEMBL document CHEMBL4828715, “Discovery, Structure-Activity Relationships, and In Vivo Evaluation of Novel Aryl Amides as Brain Penetrant Adaptor Protein 2-Associated Kinase 1 (AAK1) Inhibitors for the Treatment of Neuropathic Pain” (J Med Chem, 2021) can be followed below.

Molecules are shown by their SMILES. Activity calls are given as the source filed them. The calls are words filed in the database; no cut-off is given here.

Data set [1] in a line: Permeability of the compound across basolateral to apical membrane in human Caco-2 cells incubated for 2 hrs by LC-MS/MS analysis. In kind it is ADME, cell-based. Particulars: Caco-2, read-out: permeability.
In data set [2] the target is T1, AP2-associated protein kinase 1 (Homo sapiens, UniProt Q2M2I8). The data set is described as follows: Inhibition of AAK1 (unknown origin).
T1 sequence (Q2M2I8 whole entry): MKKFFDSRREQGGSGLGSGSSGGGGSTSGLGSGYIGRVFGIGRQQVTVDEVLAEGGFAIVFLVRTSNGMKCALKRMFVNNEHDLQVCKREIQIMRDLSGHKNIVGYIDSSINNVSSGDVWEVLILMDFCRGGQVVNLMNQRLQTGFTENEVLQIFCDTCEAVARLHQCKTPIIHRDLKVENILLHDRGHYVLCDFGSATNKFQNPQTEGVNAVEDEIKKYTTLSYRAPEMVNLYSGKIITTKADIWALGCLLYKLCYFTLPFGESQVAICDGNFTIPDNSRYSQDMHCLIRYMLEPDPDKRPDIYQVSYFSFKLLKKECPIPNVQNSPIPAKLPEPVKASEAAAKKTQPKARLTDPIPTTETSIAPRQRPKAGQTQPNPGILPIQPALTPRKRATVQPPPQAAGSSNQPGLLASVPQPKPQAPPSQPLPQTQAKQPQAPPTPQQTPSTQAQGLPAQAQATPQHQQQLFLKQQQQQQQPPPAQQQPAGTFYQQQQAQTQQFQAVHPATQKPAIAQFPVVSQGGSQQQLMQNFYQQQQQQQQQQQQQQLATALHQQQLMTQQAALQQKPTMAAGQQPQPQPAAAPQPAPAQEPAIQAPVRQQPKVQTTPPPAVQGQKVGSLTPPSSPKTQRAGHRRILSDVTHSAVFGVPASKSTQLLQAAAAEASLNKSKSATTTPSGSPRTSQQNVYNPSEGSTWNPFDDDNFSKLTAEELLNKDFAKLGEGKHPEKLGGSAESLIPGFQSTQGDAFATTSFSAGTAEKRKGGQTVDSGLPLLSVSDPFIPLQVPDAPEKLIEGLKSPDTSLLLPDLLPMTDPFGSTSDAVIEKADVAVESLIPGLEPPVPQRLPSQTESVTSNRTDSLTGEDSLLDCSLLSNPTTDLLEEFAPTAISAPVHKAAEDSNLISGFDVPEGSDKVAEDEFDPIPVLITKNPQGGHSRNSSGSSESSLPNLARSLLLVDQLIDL
Data set [3] can be described thus: Protein binding in mouse plasma assessed as unbound fraction at 10 uM measured after 5 hrs by equilibrium dialysis method.
Data set [4] can be described thus: Metabolic stability in human liver microsomes assessed as parent compound remaining at 0.5 uM incubated for 10 mins in presence of NADPH by LC-MS/MS analysis. In kind it is ADME, Microsome. As to conditions: read-out: Stability.
Data set [5] can be described thus: Permeability of the compound across apical to basolateral membrane in human Caco-2 cells incubated for 2 hrs by LC-MS/MS analysis. A general note: Passage across Caco-2 layers is used to estimate intestinal permeability.
Data set [6] in a line: Permeability of the compound at pH 5.5 incubated for 4 hrs by PAMPA-based UV spectrophotometry. Type of data set: ADME. As to conditions: read-out: permeability. A general note: In PAMPA a lipid-coated filter parts donor from acceptor wells.
Data set [7] has as its target T1, AP2-associated protein kinase 1. Put plainly: Inhibition of recombinant GST-Xa-tagged human AAK1 (30 to 330 residues) using 5-FAM-labelled Alla-KEEQSQITSQVTGQIGWR-NH2 peptide as substrate incubated for 3 hrs in presence of ATP by electrophoretic analysis.
Data set [8] has the same target. The data set is described as follows: Inhibition of human AAK1 expressed in HEK293 cells assessed as suppression of AP2 phosphorylation measured after 3 hrs by Western blot analysis. In kind it is cell-based. Background: In western blotting, separated proteins are transferred to a membrane and probed.
Data set [9] can be described thus: Metabolic stability in rat liver microsomes assessed as parent compound remaining at 0.5 uM incubated for 10 mins in presence of NADPH by LC-MS/MS analysis. Type of data set: ADME, Microsome. Particulars: read-out: Stability.
Data set [10] can be described thus: Permeability of the compound at pH 7.4 incubated for 4 hrs by PAMPA-based UV spectrophotometry. Type of data set: ADME. As to conditions: for Papp at 4 h: PAMPA, pH 7.4, read-out: permeability.
A short description of data set [11]: Metabolic stability in mouse liver microsomes assessed as parent compound remaining at 0.5 uM incubated for 10 mins in presence of NADPH by LC-MS/MS analysis. As to conditions: read-out: Stability. In kind it is ADME, Microsome.
A short description of data set [12]: Protein binding in rat plasma assessed as unbound fraction at 10 uM measured after 5 hrs by equilibrium dialysis method.
Data set [13] in a line: Protein binding in human plasma assessed as unbound fraction at 10 uM measured after 5 hrs by equilibrium dialysis method.
Data set [14] in a line: Drug concentration in C57BL6 mouse plasma at 30 mg/kg, sc measured after 2 hrs by LC-MS/MS analysis. Type of data set: ADME, organism-based.
Data set [15] is described as follows: Ratio of drug concentration in brain to plasma in C57BL6 mouse at […], sc. In kind it is ADME. As to conditions: read-out: BPR.
The nature of data set [16]: Drug concentration in C57BL6 mouse brain at 30 mg/kg, sc measured after 2 hrs by LC-MS/MS analysis. In kind it is ADME, organism-based. Particulars: read-out: Ct.
Data set [17] can be described thus: Efflux ratio of permeability across basolateral to apical membrane over apical to basolateral membrane in human Caco-2 cells.
Data set [18] deals with Rattus norvegicus. The data set is described as follows: Reversal of chronic constriction injury-induced cold allodynia in Sprague-Dawley rat model of neuropathic pain at 100 mg/kg, po measured up to 180 mins relative to control. In kind it is functional. Particulars: time min <=180.
For data set [19], the system named is Rattus norvegicus. Put plainly: Antinociceptive activity in Sprague-Dawley rat model of chronic constriction injury-induced neuropathic pain assessed as reduction in thermal hyperalgesia 100 mg/kg, po by Von Frey test relative to control. Type of data set: functional. Further details: scale not given: the % may be the effect or the level left.
The subject of data set [20] is Rattus norvegicus. Put plainly: Antinociceptive activity in Sprague-Dawley rat model of chronic constriction injury-induced neuropathic pain assessed as reduction in paw withdrawal latency at 100 mg/kg, po by Von Frey test. Type of data set: functional, organism-based.
Data set [21] has as its system Rattus norvegicus. The data set is described as follows: Reversal of chronic constriction injury-induced mechanical allodynia in Sprague-Dawley rat model of neuropathic pain at 100 mg/kg, sc measured up to 180 mins relative to control. Type of data set: functional. Particulars: time min <=180.
Data set [22] can be described thus: Toxicity in Sprague-Dawley rat assessed as unsteadiness at 100 mg/kg, po. In kind it is organism-based. As to conditions: in vivo.
The nature of data set [23]: Induction of motor coordination impairment in Sprague-Dawley rat at 100 mg/kg, po measured up to 180 mins by rotarod test. In kind it is organism-based. As to conditions: in vivo, 3 h.
Data set [24] is described as follows: Toxicity in Sprague-Dawley rat assessed as drowsiness at 100 mg/kg, po. As to conditions: in vivo. In kind it is organism-based.
Data set [25] concerns Rattus norvegicus. Put plainly: Antinociceptive activity in Sprague-Dawley rat model of chronic constriction injury-induced neuropathic pain assessed as reduction in mechanical hyperalgesia 100 mg/kg, po by Von Frey test relative to control. Further details: scale not given: the % may be the effect or the level left. In kind it is functional.
The nature of data set [26]: Toxicity in Sprague-Dawley rat assessed as dizziness at 100 mg/kg, po. Particulars: in vivo. Type of data set: organism-based.

Regarding `C[C@H]1O[C@@H](O[C@H]2[C@@H](O)C[C@H](O[C@H]3[C@@H](O)C[C@H](O[C@H]4CC[C@@]5(C)[C@H](CC[C@@H]6[C@@H]5C[C@@H](O)[C@]5(C)[C@@H](C7=CC(=O)OC7)CC[C@]65O)C4)O[C@@H]3C)O[C@@H]2C)C[C@H](O)[C@@H]1O` [DIGOXIN], the Papp B→A at 2 h in [1] amounted to 10 ×10⁻⁶ cm/s.

Consider `Cc1nccc2c1c(=O)n(C)c1cc(OC[C@@H](N)CC(C)C)c(C#N)cc21`, for which, in [2], inhibition was half-maximal at 0.7 nM (IC50).

On to `COc1cc(NC(=O)[C@@H]2NCCC[C@@H]2C(C)C)ccc1-c1cnco1`, for which the free fraction (fraction unbound) – broadly, free concentration divided by total concentration – at 5 h, 10 µM in [3] worked out at 0.028; in data set [12], 0.059; in data set [13], 0.19. Besides, the values for the remaining at 10 min, 0.5 µM in data set [4], in data set [9] and in data set [11] were 60%, 42% and 2%, respectively. The apical-to-basolateral permeability (Papp A→B) (in general, the apparent permeability from the apical to the basolateral side of a cell layer) at 2 h in data set [5] is 16.7 ×10⁻⁶ cm/s. Moreover, the Papp at 4 h in [6] amounted to 47.1 ×10⁻⁶ cm/s; in [10] it was 43.5 ×10⁻⁶ cm/s. Besides, the half-inhibitory concentration (IC50) (as a rule, the concentration that inhibits the measured activity by half) in data set [7] was determined as 10 nM; in [8] it was 105 nM. The Papp B→A at 2 h in [1] was 11.9 ×10⁻⁶ cm/s.

`CC(C(=O)O)c1cccc(C(=O)c2ccccc2)c1` (centres undefined) [KETOPROFEN]: the Papp at 4 h is 34.2 ×10⁻⁶ cm/s in data set [6] and 1.1 ×10⁻⁶ cm/s in data set [10].

Regarding `COc1cc(NC(=O)[C@H](N)CC(C)C)ccc1-c1cn[nH]c1`, the concentration at 2 h in data set [14] was 29.9 µM; in [16], 5.7 µM. For the same molecule, the results for the unbound share (fraction unbound) at 5 h, 10 µM in data set [3], in data set [12] and in data set [13] were 0.2, 0.1 and 0.18, respectively. The Kp in data set [15] amounted to 0.21. Besides, the remaining at 10 min, 0.5 µM in data set [4] came out at 85%; in data set [9], 74%; in data set [11] it was 34%. Besides, the Papp A→B at 2 h in data set [5] came to 4 ×10⁻⁶ cm/s. Besides, the half-inhibitory concentration (IC50) in data set [7] came to 15 nM; in data set [8] it was 190 nM. Besides, in data set [17], the efflux ratio (as a rule, the permeability from basolateral to apical divided by that in the opposite direction, in the common usage) was 3.3. For the same molecule, in [1], the Papp B→A at 2 h is 14.9 ×10⁻⁶ cm/s.

Take `COc1cc(NC(=O)[C@H](N)CC(C)C)ccc1-c1cnco1`: the concentration at 2 h is 7.3 µM in data set [14] and 6.8 µM in data set [16]. For the same molecule, the free fraction (fraction unbound) at 5 h, 10 µM in [3] was found to be 0.086; in data set [12] it was 0.023; in [13], 0.063. Also, the Kp in [15] stood at 1.17. For the same molecule, the remaining at 10 min, 0.5 µM in [4] is 89%; in [9], 75%; in data set [11], 64%. The same molecule gave a Papp A→B at 2 h in data set [5] of 13.7 ×10⁻⁶ cm/s. For the same molecule, the Papp at 4 h amounted to 56.9 ×10⁻⁶ cm/s in [6] and 58.4 ×10⁻⁶ cm/s in data set [10]. The IC50 in [7] amounted to 12 nM; in data set [8], 60 nM. For the same molecule, the Papp B→A at 2 h in data set [1] was 15.1 ×10⁻⁶ cm/s.

With `NCC1(CC(=O)O)CCCCC1` [GABAPENTIN], the Activity is 54% in the data set on Rattus norvegicus [18]; 89% with Rattus norvegicus [19]; 34% with Rattus norvegicus [21]; “Toxic” in [22]; “Toxic” in data set [23]; “Toxic” in data set [24]. The values for the Activity (with Rattus norvegicus [25]; in [26]) were 32% and “Toxic”, respectively. In the data set with Rattus norvegicus [20], the result was Active.

With `COc1cc(NC(=O)[C@H](N)CC(C)C)ccc1-c1ccncn1`, the figures for the remaining at 10 min, 0.5 µM in data set [4], in data set [9] and in data set [11] were 71%, 52% and 40%, respectively. Moreover, the IC50 in data set [7] is 290 nM.

On to `COCCc1ccc(OCC(O)CNC(C)C)cc1` (centres undefined) [METOPROLOL], for which the Papp at 4 h in data set [6] was 10.2 ×10⁻⁶ cm/s. The permeability in data set [10] (pampa, pH 7.4, 4 h) is listed as 83.5 10^-6 cm/s.

Regarding `COc1cc(NC(=O)[C@H](N)CC(C)C)ccc1-c1cn[nH]n1`, the figures for the remaining at 10 min, 0.5 µM in data set [4], in data set [9] and in data set [11] were 84%, 87% and 44%, respectively. The half-inhibitory concentration (IC50) in [7] came to 49 nM.

For `COc1cc(NC(=O)[C@H](N)CC(C)C)ccc1-c1cncs1`, the remaining at 10 min, 0.5 µM was determined as 75% in [4], 76% in [9] and 55% in data set [11]. Moreover, the IC50 in [7] is 190 nM.

For the molecule `Cc1cc(NC(=O)[C@H](N)CC(C)C)ccc1-c1cnco1`, the values for the remaining at 10 min, 0.5 µM in data set [4], in data set [9] and in data set [11] were 74%, 74% and 43%, respectively. Also, the IC50 in data set [7] is 48 nM.

As to `COc1cc(NC(=O)[C@H](N)[C@H](C)O)ccc1-c1cnco1`, the remaining at 10 min, 0.5 µM in data set [4] stood at 85%; in data set [9], 77%; in data set [11], 91%. The concentration for half-maximal inhibition (IC50) in data set [7] was found to be 410 nM.

Turning to `COc1cc(NC(=O)[C@H](N)C2CCCCC2)ccc1-c1cnco1`, the remaining at 10 min, 0.5 µM in data set [4] was found to be 69%; in data set [9], 66%; in data set [11], 67%. The IC50 in data set [7] amounted to 18 nM.

As for `COc1cc(NC(=O)[C@H](N)CC2CC2)ccc1-c1cnco1`, the remaining at 10 min, 0.5 µM in data set [4] amounted to 100%; in data set [9] it was 74%; in data set [11], 79%. In [7], the IC50 was 45 nM.
